Results reported in PubChem BioAssay AID1259407 (Chemical Carcinogenesis Research Information System (CCRIS), 2018).
The source made the active and inactive calls. No rule for the calls is given here.

System: CCRIS mutagenicity, Ames/micronucleus/aberration tests
Experiment: CCRIS mutagenicity studies
Settings: Test System: AMES SALMONELLA TYPHIMURIUM

Compound | mutagenic call (Strain/Indicator: TA100, Metabolic Activation: HAMSTER, LIVER, S-9, AROCLOR 1254 (10%), Method: PREINCUBATION) | mutagenic call (Strain/Indicator: TA100, Metabolic Activation: NONE, Method: PREINCUBATION) | mutagenic call (Strain/Indicator: TA100, Metabolic Activation: NONE, Method: SPOT) | mutagenic call (Strain/Indicator: TA100, Metabolic Activation: RAT, LIVER, S-9, AROCLOR 1254 (10%), Method: PREINCUBATION) | mutagenic call (Strain/Indicator: TA1535, Metabolic Activation: HAMSTER, LIVER, S-9, AROCLOR 1254 (10%), Method: PREINCUBATION) | mutagenic call (Strain/Indicator: TA1535, Metabolic Activation: NONE, Method: PREINCUBATION) | mutagenic call (Strain/Indicator: TA1535, Metabolic Activation: RAT, LIVER, S-9, AROCLOR 1254 (10%), Method: PREINCUBATION) | mutagenic call (Strain/Indicator: TA98, Metabolic Activation: NONE, Method: STANDARD PLATE) | mutagenic call (Strain/Indicator: TA98, Metabolic Activation: RAT LIVER S-9, AROCLOR 1254 (10%), Method: STANDARD PLATE) | mutagenic call (Strain/Indicator: TA100, Metabolic Activation: NONE, Method: STANDARD PLATE) | mutagenic call (Strain/Indicator: TA100, Metabolic Activation: RAT LIVER S-9, AROCLOR 1254 (10%), Method: STANDARD PLATE) | mutagenic call (Strain/Indicator: TA1535, Metabolic Activation: NONE, Method: STANDARD PLATE) | mutagenic call (Strain/Indicator: TA1535, Metabolic Activation: RAT LIVER S-9, AROCLOR 1254 (10%), Method: STANDARD PLATE) | mutagenic call (Strain/Indicator: TA1537, Metabolic Activation: NONE, Method: STANDARD PLATE) | mutagenic call (Strain/Indicator: TA1537, Metabolic Activation: RAT LIVER S-9, AROCLOR 1254 (10%), Method: STANDARD PLATE)
CCCCOCC1CO1 (stereo not given) | active; positive | active; positive | active; positive | active; positive | active; positive | active; positive | active; positive | – | – | – | – | – | – | – | –
C[n+]1c2n(c(=O)c3ccccc31)CCc1c-2[nH]c2ccccc12 | – | – | – | – | – | – | – | inactive; negative | inactive; negative | inactive; negative | inactive; negative | inactive; negative | inactive; negative | inactive; negative | inactive; negative
